Experimental data reported in ChEMBL document CHEMBL5150049, “The discovery of (1R, 3R)-1-(3-chloro-5-fluorophenyl)-3-(hydroxymethyl)-1,2,3,4-tetrahydroisoquinoline-6-carbonitrile, a potent and selective agonist of human transient receptor potential cation channel subfamily m member 5 (TRPM5) and evaluation of as a potential gastrointestinal prokinetic agent” (Bioorg Med Chem, 2022).
pEC50: −log10 of the molar value. In brackets after ≈: the same amount, converted by molar mass. Values belong to the molecule of their own block, whether it stands above or below them.

How the values were obtained:
[1] = AUC (0 to infinity) in C57BL/6 mouse at 10 mg/kg, po; assay type: ADME, organism-based; design: time infinity, dose 10 mg/kg, route po; settings: in vivo
[2] = Oral bioavailability in C57BL/6 mouse at 10 mg/kg; assay type: ADME, organism-based; settings: in vivo
[3] = Cmax in C57BL/6 mouse at 100 mg/kg, po; assay type: ADME, organism-based; design: dose 100 mg/kg, route po; settings: in vivo
[4] = Half-life in C57BL/6 mouse at 100 mg/kg, po; assay type: ADME, organism-based; settings: in vivo
[5] = AUC (0 to infinity) in C57BL/6 mouse at 30 mg/kg, po; assay type: ADME, organism-based; design: time infinity, dose 30 mg/kg, route po; settings: in vivo
[6] = Volume of distribution at steady state in C57BL/6 mouse at 1 mg/kg, iv; assay type: ADME, organism-based; settings: in vivo
[7] = molecular target: Transient receptor potential cation channel subfamily V member 1 (Homo sapiens, UniProt Q8NER1); test: Agonist activity at human TRPV1
Sequence of Transient receptor potential cation channel subfamily V member 1 (Q8NER1 whole entry): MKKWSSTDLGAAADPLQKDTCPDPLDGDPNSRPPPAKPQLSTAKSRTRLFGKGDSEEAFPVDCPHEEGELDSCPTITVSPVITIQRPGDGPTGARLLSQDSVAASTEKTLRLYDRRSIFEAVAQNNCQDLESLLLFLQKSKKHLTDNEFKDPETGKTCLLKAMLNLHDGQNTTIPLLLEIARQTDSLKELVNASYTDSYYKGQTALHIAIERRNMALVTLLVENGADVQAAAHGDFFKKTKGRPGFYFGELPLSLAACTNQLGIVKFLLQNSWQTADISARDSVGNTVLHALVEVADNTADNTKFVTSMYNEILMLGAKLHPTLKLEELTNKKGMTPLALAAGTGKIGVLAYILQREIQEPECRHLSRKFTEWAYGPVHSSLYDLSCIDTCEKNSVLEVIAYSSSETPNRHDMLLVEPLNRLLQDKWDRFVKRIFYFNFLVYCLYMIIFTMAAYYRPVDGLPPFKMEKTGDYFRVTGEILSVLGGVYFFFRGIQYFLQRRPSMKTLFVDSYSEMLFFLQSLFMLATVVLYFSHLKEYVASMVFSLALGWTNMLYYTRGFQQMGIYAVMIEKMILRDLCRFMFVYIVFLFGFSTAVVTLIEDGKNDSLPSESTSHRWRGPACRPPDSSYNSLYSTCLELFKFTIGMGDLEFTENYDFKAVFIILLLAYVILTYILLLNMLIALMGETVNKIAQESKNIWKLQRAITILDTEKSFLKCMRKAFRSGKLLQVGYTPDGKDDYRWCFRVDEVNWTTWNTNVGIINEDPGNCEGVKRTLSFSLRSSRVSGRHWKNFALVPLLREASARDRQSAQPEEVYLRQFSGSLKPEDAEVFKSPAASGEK

[8] = Half-life in C57BL/6 mouse at 30 mg/kg, po; assay type: ADME, organism-based; settings: in vivo
[9] = Metabolic stability in human liver microsomes assessed as half life; assay type: ADME, Microsome
[10] = system: MDR1 (multidrug resistance mutation-1 as written); test: Apparent permeability across basolateral to apical side in LLC-PK1 cells overexpressing multidrug resistance mutation-1; assay type: ADME, cell-based, Sus scrofa; settings: pig
[11] = Oral bioavailability in C57BL/6 mouse at 100 mg/kg; assay type: ADME, organism-based; settings: in vivo
[12] = molecular target: Transient receptor potential cation channel subfamily V member 4 (Homo sapiens, UniProt Q9HBA0); test: Agonist activity at human TRPV4
Sequence of Transient receptor potential cation channel subfamily V member 4 (Q9HBA0 whole entry): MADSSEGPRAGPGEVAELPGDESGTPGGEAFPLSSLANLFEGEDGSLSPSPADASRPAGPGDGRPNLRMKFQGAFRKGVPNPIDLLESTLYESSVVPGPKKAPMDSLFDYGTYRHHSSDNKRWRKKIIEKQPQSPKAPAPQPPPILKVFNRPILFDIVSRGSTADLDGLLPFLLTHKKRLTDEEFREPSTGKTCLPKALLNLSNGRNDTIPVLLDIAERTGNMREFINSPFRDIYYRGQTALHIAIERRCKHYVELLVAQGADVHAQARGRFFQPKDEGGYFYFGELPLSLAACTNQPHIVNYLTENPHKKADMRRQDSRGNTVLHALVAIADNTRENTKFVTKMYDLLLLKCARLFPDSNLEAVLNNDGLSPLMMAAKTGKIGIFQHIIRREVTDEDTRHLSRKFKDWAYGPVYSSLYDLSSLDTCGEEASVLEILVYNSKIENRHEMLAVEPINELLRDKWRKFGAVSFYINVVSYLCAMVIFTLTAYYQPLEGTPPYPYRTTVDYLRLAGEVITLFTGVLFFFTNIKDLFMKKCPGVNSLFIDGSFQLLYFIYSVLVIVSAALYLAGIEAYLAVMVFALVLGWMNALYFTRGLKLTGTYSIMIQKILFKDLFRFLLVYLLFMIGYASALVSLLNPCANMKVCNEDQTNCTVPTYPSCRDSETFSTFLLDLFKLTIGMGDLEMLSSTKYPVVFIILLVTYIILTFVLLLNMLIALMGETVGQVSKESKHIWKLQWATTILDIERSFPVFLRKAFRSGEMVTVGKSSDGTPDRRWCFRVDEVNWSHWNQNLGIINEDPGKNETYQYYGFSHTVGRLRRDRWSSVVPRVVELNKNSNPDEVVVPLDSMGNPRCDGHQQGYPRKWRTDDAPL

[13] = molecular target: Transient receptor potential cation channel subfamily M member 8 (Homo sapiens, UniProt Q7Z2W7); test: Agonist activity at human TRPM8 expressed in HEK cells assessed as increase in intracellular calcium level measured for 5 mins by FLIPR assay; assay type: cell-based
[14] = Solubility of the compound in JP2 solution at pH 6.8 measured after 3 hrs by UHPLC analysis; assay type: physicochemical
[15] = molecular target: Transient receptor potential cation channel subfamily M member 4 (Homo sapiens, UniProt Q8TD43); test: Agonist activity at human TRPM4 expressed in CHO-K1 cells assessed as increase in relative fluorescence unit by measuring membrane potential by FLIPR assay; assay type: cell-based
Sequence of Transient receptor potential cation channel subfamily M member 4 (Q8TD43 whole entry): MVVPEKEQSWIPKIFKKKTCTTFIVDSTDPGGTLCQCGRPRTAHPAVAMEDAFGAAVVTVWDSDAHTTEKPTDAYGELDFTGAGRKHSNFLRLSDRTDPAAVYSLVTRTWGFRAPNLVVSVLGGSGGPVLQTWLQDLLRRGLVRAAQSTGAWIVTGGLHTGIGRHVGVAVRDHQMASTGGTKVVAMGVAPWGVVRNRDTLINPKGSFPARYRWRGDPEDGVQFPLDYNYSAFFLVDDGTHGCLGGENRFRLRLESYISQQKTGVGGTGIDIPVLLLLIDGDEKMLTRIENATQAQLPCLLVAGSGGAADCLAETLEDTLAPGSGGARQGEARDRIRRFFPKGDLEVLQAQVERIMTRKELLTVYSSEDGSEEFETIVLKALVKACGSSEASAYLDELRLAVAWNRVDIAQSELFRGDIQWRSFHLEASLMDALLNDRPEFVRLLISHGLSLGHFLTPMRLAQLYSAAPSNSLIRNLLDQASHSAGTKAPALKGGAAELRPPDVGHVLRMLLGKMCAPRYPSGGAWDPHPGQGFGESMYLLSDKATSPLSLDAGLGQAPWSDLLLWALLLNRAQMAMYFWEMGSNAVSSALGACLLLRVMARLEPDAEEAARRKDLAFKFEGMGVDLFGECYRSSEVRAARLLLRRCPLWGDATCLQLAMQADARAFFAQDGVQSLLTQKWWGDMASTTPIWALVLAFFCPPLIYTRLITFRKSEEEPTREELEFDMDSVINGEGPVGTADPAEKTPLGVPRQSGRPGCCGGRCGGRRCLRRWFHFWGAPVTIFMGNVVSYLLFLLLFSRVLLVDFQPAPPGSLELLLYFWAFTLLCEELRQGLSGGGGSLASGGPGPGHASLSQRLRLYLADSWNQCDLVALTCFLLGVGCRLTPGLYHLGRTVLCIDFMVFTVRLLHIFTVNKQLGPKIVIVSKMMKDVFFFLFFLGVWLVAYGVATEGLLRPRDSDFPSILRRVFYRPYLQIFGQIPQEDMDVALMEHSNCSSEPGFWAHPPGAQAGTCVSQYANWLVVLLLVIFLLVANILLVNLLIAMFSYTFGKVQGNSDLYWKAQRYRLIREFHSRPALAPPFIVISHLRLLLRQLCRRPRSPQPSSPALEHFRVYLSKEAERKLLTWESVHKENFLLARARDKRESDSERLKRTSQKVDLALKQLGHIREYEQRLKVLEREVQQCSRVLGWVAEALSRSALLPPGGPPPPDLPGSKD

[16] = Oral bioavailability in C57BL/6 mouse at 30 mg/kg; assay type: ADME, organism-based; settings: in vivo
[17] = Cmax in C57BL/6 mouse at 10 mg/kg, po; assay type: ADME, organism-based; design: dose 10 mg/kg, route po; settings: in vivo
[18] = molecular target: Transient receptor potential cation channel subfamily A member 1 (Homo sapiens, UniProt O75762); test: Agonist activity at human TRPA1 expressed in HEK cells assessed as increase in intracellular calcium level measured for 5 mins by FLIPR assay; assay type: cell-based
Sequence of Transient receptor potential cation channel subfamily A member 1 (O75762 whole entry): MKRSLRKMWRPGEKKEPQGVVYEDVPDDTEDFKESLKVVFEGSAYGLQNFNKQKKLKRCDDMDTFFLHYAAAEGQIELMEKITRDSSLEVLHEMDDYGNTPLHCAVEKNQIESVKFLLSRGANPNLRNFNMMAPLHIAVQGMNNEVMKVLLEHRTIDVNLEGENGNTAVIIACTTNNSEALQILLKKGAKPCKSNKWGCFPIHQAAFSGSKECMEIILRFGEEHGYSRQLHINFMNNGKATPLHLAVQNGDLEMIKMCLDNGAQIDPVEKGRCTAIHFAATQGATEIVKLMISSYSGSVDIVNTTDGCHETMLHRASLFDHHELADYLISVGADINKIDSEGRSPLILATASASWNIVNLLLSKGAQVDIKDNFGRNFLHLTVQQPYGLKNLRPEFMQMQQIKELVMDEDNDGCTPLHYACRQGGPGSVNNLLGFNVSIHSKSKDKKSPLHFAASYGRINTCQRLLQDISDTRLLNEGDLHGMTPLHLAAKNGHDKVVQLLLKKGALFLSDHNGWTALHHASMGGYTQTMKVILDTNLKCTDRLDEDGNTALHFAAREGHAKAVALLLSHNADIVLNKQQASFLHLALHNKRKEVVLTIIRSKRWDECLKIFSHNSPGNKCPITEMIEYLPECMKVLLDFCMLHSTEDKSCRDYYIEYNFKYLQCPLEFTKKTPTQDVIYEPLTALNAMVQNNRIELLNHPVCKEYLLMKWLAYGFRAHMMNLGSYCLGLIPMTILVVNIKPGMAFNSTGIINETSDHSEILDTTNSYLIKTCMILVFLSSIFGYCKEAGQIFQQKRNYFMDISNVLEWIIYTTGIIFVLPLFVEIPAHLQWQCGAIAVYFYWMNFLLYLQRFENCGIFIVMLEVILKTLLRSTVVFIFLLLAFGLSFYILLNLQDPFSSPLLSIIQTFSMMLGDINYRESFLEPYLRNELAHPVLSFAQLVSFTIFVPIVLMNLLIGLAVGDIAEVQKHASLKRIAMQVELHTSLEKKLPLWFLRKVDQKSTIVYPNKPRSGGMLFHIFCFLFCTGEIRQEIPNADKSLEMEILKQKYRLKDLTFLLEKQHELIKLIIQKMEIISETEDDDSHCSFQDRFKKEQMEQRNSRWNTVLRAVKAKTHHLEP

[19] = Half-life in C57BL/6 mouse at 10 mg/kg, po; assay type: ADME, organism-based; settings: in vivo
[20] = system: MDR1 (multidrug resistance mutation-1 as written); test: Apparent permeability across apical to basolateral side in LLC-PK1 cells overexpressing multidrug resistance mutation-1; assay type: ADME, cell-based, Sus scrofa; settings: pig
[21] = AUC (0 to infinity) in C57BL/6 mouse at 100 mg/kg, po; assay type: ADME, organism-based; design: time infinity, dose 100 mg/kg, route po; settings: in vivo
[22] = Solubility of the compound in JP1 solution at pH 1.2 measured after 3 hrs by UHPLC analysis; assay type: physicochemical
[23] = Half-life in C57BL/6 mouse at 1 mg/kg, iv; assay type: ADME, organism-based; settings: in vivo
[24] = molecular target: T1, Transient receptor potential cation channel subfamily M member 5 (Homo sapiens, UniProt Q9NZQ8); test: Agonist activity at human TRPM5 expressed in CHO-K1 cells assessed as increase in relative fluorescence unit measured for 2 mins by FLIPR based membrane potential assay; assay type: cell-based
T1 sequence (Q9NZQ8 whole entry): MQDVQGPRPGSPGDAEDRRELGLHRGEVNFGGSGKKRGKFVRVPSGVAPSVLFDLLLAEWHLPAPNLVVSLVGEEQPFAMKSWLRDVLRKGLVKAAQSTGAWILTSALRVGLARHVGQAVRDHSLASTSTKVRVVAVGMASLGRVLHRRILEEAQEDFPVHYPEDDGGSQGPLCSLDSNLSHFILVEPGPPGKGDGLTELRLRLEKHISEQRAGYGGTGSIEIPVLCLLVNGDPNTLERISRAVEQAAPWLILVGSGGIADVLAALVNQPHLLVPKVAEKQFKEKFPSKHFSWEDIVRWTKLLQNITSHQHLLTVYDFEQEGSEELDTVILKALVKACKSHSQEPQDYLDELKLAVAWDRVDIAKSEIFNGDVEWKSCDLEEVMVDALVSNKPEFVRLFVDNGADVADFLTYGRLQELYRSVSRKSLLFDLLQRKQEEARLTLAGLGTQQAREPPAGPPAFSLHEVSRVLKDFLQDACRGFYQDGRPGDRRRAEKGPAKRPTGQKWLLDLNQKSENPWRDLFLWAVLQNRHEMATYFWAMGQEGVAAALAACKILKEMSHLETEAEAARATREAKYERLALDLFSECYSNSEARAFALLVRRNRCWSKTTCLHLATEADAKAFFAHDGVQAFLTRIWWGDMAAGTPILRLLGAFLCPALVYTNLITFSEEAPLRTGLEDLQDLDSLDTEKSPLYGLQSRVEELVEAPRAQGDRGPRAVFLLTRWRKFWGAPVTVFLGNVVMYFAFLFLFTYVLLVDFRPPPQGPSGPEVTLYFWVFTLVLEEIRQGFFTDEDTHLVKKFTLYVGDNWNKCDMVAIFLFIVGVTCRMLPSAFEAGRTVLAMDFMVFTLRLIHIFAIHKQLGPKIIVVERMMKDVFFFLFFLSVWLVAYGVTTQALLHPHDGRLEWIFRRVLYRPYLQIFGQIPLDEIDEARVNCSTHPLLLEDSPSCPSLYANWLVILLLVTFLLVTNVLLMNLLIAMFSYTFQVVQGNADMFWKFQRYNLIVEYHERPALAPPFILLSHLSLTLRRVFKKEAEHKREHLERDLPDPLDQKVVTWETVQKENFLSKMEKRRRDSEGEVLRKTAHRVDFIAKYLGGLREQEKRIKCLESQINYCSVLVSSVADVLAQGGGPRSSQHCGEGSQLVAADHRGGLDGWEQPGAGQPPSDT

[25] = Cmax in C57BL/6 mouse at 30 mg/kg, po; assay type: ADME, organism-based; design: dose 30 mg/kg, route po; settings: in vivo
[26] = AUC (0 to infinity) in C57BL/6 mouse at 1 mg/kg, iv; assay type: ADME, organism-based; design: time infinity, dose 1 mg/kg, route iv; settings: in vivo
[27] = molecular target: T2, Transient receptor potential cation channel subfamily M member 5 (Mus musculus, UniProt Q9JJH7); test: Agonist activity at mouse TRPM5 expressed in CHO-K1 cells; assay type: cell-based
T2 sequence (Q9JJH7 whole entry): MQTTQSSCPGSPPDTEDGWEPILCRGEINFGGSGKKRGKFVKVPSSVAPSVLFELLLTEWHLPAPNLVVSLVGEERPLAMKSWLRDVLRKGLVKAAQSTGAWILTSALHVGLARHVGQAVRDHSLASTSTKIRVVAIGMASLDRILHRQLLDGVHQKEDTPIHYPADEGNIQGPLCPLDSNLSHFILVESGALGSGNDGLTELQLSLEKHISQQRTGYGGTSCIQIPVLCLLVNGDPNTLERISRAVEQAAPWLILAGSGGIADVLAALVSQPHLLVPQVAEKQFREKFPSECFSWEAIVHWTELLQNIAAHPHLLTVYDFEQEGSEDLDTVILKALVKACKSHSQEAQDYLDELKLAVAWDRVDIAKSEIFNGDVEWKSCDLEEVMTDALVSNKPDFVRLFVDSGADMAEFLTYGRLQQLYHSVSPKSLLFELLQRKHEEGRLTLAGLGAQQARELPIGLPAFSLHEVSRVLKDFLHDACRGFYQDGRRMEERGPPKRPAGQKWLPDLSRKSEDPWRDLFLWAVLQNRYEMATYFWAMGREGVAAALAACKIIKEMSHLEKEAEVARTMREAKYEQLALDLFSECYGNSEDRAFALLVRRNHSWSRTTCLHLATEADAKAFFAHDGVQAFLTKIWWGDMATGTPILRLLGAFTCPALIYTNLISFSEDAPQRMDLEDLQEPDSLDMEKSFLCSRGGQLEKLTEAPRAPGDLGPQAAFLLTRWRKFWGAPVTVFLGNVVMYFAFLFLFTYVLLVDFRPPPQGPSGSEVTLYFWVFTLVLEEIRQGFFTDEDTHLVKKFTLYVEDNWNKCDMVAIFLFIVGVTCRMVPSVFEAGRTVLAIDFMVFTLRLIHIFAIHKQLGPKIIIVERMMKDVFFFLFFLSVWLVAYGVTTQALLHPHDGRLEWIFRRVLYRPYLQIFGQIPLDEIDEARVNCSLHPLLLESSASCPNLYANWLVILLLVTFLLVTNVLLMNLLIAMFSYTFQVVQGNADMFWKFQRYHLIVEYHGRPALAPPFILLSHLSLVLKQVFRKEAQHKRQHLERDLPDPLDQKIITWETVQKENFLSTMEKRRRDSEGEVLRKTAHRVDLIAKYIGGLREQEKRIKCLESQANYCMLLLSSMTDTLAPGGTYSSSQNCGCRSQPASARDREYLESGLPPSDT

[28] = Oral bioavailability in C57BL/6 mouse at 300 mg/kg; assay type: ADME, organism-based; settings: in vivo
[29] = Unbound fraction in human plasma; assay type: ADME, cell-free
[30] = Area under […] in C57BL/6 mouse at 300 mg/kg administered twice a day; assay type: ADME, organism-based; settings: in vivo
[31] = Apparent permeability across apical to basolateral side in human Caco-2 cells; assay type: ADME, cell-based
[32] = Area under […] in C57BL/6 mouse at 100 mg/kg administered twice a day; assay type: ADME, organism-based; settings: in vivo
[33] = Solubility of the compound in JP2 solution at pH 6.8; assay type: physicochemical
[34] = Solubility of the compound in JP1 solution at pH 1.2; assay type: physicochemical
[35] = Unbound fraction in mouse plasma; assay type: ADME, cell-free
[36] = Cmax in C57BL/6 mouse at 300 mg/kg, po; assay type: ADME, organism-based; design: dose 300 mg/kg, route po; settings: in vivo
[37] = AUC (0 to infinity) in C57BL/6 mouse at 300 mg/kg, po; assay type: ADME, organism-based; design: time infinity, dose 300 mg/kg, route po; settings: in vivo
[38] = Apparent permeability across basolateral to apical side in human Caco-2 cells; assay type: ADME, cell-based
[39] = Area under […] in C57BL/6 mouse at 30 mg/kg administered twice a day; assay type: ADME, organism-based; settings: in vivo
[40] = Half-life in C57BL/6 mouse at 300 mg/kg, po; assay type: ADME, organism-based; settings: in vivo
[41] = Clearance in C57BL/6 mouse at 1 mg/kg, iv; assay type: ADME, organism-based; settings: in vivo

AUC [1]: 0.395 µg·h/mL | F [2]: 16.6% | Cmax [3]: 1.396 µg/mL | t1/2 ([4]; mouse, po, 100 mg/kg): 6.3 h | AUC [5]: 1.716 µg·h/mL | Vdss ([6]; mouse, iv, 1 mg/kg): 3.507 L/kg | pEC50 [7]: < 4.80 | half-life ([8]; C57BL/6, mouse): 5.4 h | t1/2 ([9]; microsomes): 1.48 h | Papp B→A [10]: 137 nm/s | F [11]: 49% | pEC50 [12]: < 4.80 | pEC50 [13]: < 4.80 | solubility at 3 h [14]: 0.043 mg/mL (≈ 0.136 mM) | F [16]: 20.3% | Cmax [17]: 0.101 µg/mL | pEC50 [18]: < 4.80 | t1/2 ([19]; mouse, po, 10 mg/kg): 4.3 h | Papp A→B [20]: 266 nm/s | AUC [21]: 8.591 µg·h/mL | solubility at 3 h [22]: 3.5 mg/mL (≈ 11 mM) | t1/2 ([23]; mouse, iv, 1 mg/kg): 0.8 h | pEC50 [24]: 7.10 | Cmax [25]: 0.301 µg/mL | AUC ([26]; mouse): 0.1771 µg·h/mL | pEC50 [27]: 6.60
Compound: N#Cc1ccc2c(c1)C[C@H](CO)N[C@@H]2c1cc(F)cc(Cl)c1
pEC50 [15]: 4.28

AUC [1]: 0.848 µg·h/mL | F [2]: 44% | Cmax [3]: 3.667 µg/mL | half-life ([4]; C57BL/6, mouse): 5.1 h | AUC [5]: 3.676 µg·h/mL | Vd ([6]; C57BL/6, mouse, read-out: Vdss): 4.41 L/kg | bioavailability [28]: 100% | t1/2 ([8]; mouse, po, 30 mg/kg): 4.4 h | half-life ([9]; liver microsomes): 1.53 h | fraction unbound [29]: 0.121 | F [11]: 100% | AURC [30]: 17.3 h | Papp A→B [31]: 103 nm/s | AURC [32]: 12.3 h | F [16]: 74% | solubility [33]: 0.201 mg/mL (≈ 0.635 mM) | Cmax [17]: 0.29 µg/mL | half-life ([19]; C57BL/6, mouse): 2.9 h | solubility [34]: 25.3 mg/mL (≈ 79.7 mM) | fraction unbound [35]: 0.115 | AUC [21]: 28.05 µg·h/mL | Cmax [36]: 6.02 µg/mL | AUC(0-inf) [37]: 49.4 µg·h/mL | Papp B→A [38]: 154 nm/s | half-life ([23]; C57BL/6, mouse): 1.1 h | pEC50 [24]: 6.90 | Cmax [25]: 0.7 µg/mL | AURC [39]: 6.7 h | half-life [40]: 5.5 h | clearance [41]: 5.54 L/h/kg | AUC(0-inf) ([26]; C57BL/6, mouse): 0.181 µg·h/mL
Compound: N#Cc1ccc2c(c1)C[C@H](CO)N[C@@H]2c1cc(F)cc(Cl)c1 (racemic)
pEC50 [15]: 4.94
